Molecular target: T1, human OX2R (Homo sapiens, UniProt O43614)
T1 construct: expressed in transfected cells; host or cells: CHO (Chinese hamster ovary) cells, grown under G418 selection
T1 sequence (O43614 1-444): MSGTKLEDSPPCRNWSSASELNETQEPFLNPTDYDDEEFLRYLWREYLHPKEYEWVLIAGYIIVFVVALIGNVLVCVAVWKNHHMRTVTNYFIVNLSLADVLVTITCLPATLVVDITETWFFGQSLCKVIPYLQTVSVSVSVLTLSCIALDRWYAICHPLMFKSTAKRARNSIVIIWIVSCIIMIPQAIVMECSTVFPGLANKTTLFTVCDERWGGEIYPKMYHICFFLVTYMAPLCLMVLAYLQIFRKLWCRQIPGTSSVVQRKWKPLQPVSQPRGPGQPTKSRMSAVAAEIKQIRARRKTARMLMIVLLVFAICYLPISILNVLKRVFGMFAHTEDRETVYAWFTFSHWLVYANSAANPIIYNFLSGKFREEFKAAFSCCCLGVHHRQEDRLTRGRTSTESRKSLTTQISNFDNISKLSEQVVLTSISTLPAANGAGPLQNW
Assay: IPOne (IP-1) orexin receptor agonist assay in CHO cells expressing human OX2R
Assay type: cell-based
Conditions: IPOne assay, CHO cells expressing human OX2R, 2 hours incubation; read-out: hoX2R_IP IC50
From the text: The utility of the compounds in accordance with the present invention as orexin receptor OX1R and/or OX2R agonists may be readily determined without undue experimentation by methodology well known in the art. Both the OX1R and/or OX2R G-coupled protein receptors (GPCRs) couple through the Gaq signaling pathway, which ultimately promotes calcium mobilization via inositol triphosphate (IP3) production. The half-life of IP-3 is relatively short, being rapidly metabolized to inositol monophosphate (IP-1), which can be readily detected using a commercially available assay kit (IP-One; Cisbio; cat #621PAPEC) coupled with a cell line expressing the target receptor(s) of interest. The utility of the compounds in accordance with the present invention as orexin receptor OX1R and/or OX2R agonists may be determined utilizing this assay.
In a typical experiment, the OX1 and OX2 receptor agonist activity is determined in accordance with the following general experimental method. Chinese hamster ovary (CHO) cells expressing human OX1R and/or the human OX2R were grown in Iscove's modified DMEM containing glutaMAX™, 1% G418, 100 U/mL penicillin, 100 μg/mL streptomycin and 10% heat-inactivated qualified fetal bovine serum (FBS). The OX2R cells were seeded at 10,000 cells/well/50 μL and the OX1R cells were seeded at 20,000 cells/well/50 μL into 384-well white tissue culture plates (Greiner; cat #781080). All cell/media reagents were from GIBCO-Invitrogen Corp. The seeded cell plate(s) were incubated at 37° C. with 5% CO2 and 85% humidity for 20-24 hours. On the day of the assay, assay-ready compound plates were prepared using an acoustic liquid handler (ECHO; Labcyte), which dispensed sufficient volume of test compound stock (10 mM in DMSO) or 100% DMSO to prepare 10 point, ½-log dilutions in a final volume of 202.5 nL/well in all test wells of a 384-well diamond plate (Labcyte). Following completion of assay-ready plates, importantly, the next three steps were performed with minimal delay: 1) 20 μl of 1×stimulation buffer was added to the compound plate using a Multidrop Combi (small cassette, Thermo Fisher Scientific cat #24073290); 2) culture medium was removed from the cell plate using the Bluewasher plate washer (gentle spin; BlueCatBio); 3) 14 μl of compound/stimulation buffer mixture was added to the cell plate using a Bravo liquid handler (Agilent) prior to incubating cell plates at 37° C. with 5% CO2 and 85% humidity for 1 or 2 hours (OX1R and OX2R, respectively). During this incubation, IP-one detection reagents were prepared (38:1:1 lysis buffer:D2:AB-cryptate reagents). Six μL of mixed detection reagents were added to the cell plate using a Multidrop Combi (small cassette, Thermo Fisher Scientific cat #24073290) and incubated 60 minutes at room temperature in the dark. Fluorescence signal was detected using an Envision plate reader (Perkin Elmer) [LANCE/DELFIA Dual Enh (Em: APC 665; Ex: Cy5 620)].
For each compound, data were fit to a four parameter logistic fit (ActivityBase software) and the EC50 was reported as the inflection point of the resulting curve. Percent effect for each test compound was determined as the percentage of sample raw value/mean max effect, where the mean max effect was derived from the mean raw value of 32 control wells per assay plate (using Orexin A (cat #003-30) at 1 μM for human OX1R and a reference compound at 1 uM with 100% activity previously established by comparison to Orexin A for human OX2R). The intrinsic orexin receptor agonist activity of a compound which may be used in the present invention may be determined by these assays.

| IC50 | Structure (SMILES) |
| --- | --- |
| 2 nM | COC(=O)N1[C@H](C)C[C@H](NS(=O)(=O)N2CCC2)[C@@H]1CO[C@H]1CC[C@@]2(c3ncc(F)cn3)C[C@H]2C1 [Example 39, methyl (2R,3S,5R)-3-(azetidine-1-sulfonamido)-2-((((1S,3S,6R)-6-(5-fluoropyrimidin-2-yl)bicyclo[4.1.0]heptan-3-yl)oxy)methyl)-5-methylpyrrolidine-1-carboxylate] |
| 11.1 nM | COC(=O)N1[C@H](C)C[C@H](NS(C)(=O)=O)[C@@H]1COC1CCC2(c3ncc(Cl)cn3)CC2C1 (stereo partly drawn) [Example 140, methyl (2R,3S,5R)-2-(((6-(5-chloropyrimidin-2-yl)bicyclo[4.1.0]heptan-3-yl)oxy)methyl)-5-methyl-3-(methylsulfonamido)pyrrolidine-1-carboxylate] |
| 173 nM | COC(=O)N1[C@H](C)C[C@H](NS(=O)(=O)Cc2ccccc2)[C@@H]1CO[C@@H]1CC[C@]2(c3ncc(F)cn3)C[C@@H]2C1 [Example 45, methyl (2R,3S,5R)-2-((((1R,3R,6S)-6-(5-fluoropyrimidin-2-yl)bicyclo[4.1.0]heptan-3-yl)oxy)methyl)-5-methyl-3-((phenylmethyl)sulfonamido)pyrrolidine-1-carboxylate] |
| 299 nM | COC(=O)N1[C@H](C)C[C@H](NS(C)(=O)=O)[C@@H]1COC1CCC2(c3ncc(F)c(C4CC4)n3)CC2C1 (stereo partly drawn) [Example 74, methyl (2R,3S,5R)-2-(((6-(4-cyclopropyl-5-fluoropyrimidin-2-yl)bicyclo[4.1.0]heptan-3-yl)oxy)methyl)-5-methyl-3-(methylsulfonamido)pyrrolidine-1-carboxylate] |
| 604 nM | COC(=O)N1[C@H](C)C[C@H](NS(=O)(=O)N(C)C)[C@@H]1COC1CCC2(c3cc(F)cc(F)c3)CC2C1 (stereo partly drawn) [Example 4, methyl (2R,3S,5R)-2-(((6-(3,5-difluorophenyl)bicyclo[4.1.0]heptan-3-yl)oxy)methyl)-3-((N,N-dimethylsulfamoyl)amino)-5-methylpyrrolidine-1-carboxylate] |
| 2.6 nM | CC(C)OC(=O)N1[C@H](C)C[C@H](NS(=O)(=O)N(C)C)[C@@H]1COC1CCC2(c3ncc(F)cn3)CC2C1 (stereo partly drawn) [Example 164, isopropyl (2R,3S,5R)-3-((N,N-dimethylsulfamoyl)amino)-2-(((6-(5-fluoropyrimidin-2-yl)bicyclo[4.1.0]heptan-3-yl)oxy)methyl)-5-methylpyrrolidine-1-carboxylate] |
| 1.4 nM | CCC(F)(F)COC(=O)N1[C@H](C)C[C@H](NS(C)(=O)=O)[C@@H]1CO[C@H]1CC[C@@]2(c3ncc(F)cn3)C[C@H]2C1 [Example 60, 2,2-difluorobutyl (2R,3S,5R)-2-((((1S,3S,6R)-6-(5-fluoropyrimidin-2-yl)bicyclo[4.1.0]heptan-3-yl)oxy)methyl)-5-methyl-3-(methylsulfonamido)pyrrolidine-1-carboxylate] |
| 0.71 nM | C[C@@H]1C[C@H](NS(C)(=O)=O)[C@H](CO[C@H]2CC[C@@]3(c4ncc(F)cn4)C[C@H]3C2)N1C(=O)OCC1CC1(F)F (stereo partly drawn) [Example 59, (2,2-difluorocyclopropyl)methyl (2R,3S,5R)-2-((((1S,3S,6R)-6-(5-fluoropyrimidin-2-yl)bicyclo[4.1.0]heptan-3-yl)oxy)methyl)-5-methyl-3-(methylsulfonamido)pyrrolidine-1-carboxylate] |
| 9390 nM | COC(=O)N1[C@H](C)C[C@H](NS(=O)(=O)N(C)C)[C@@H]1COC1CCC2(c3ncccn3)C(C1)C2(F)F (stereo partly drawn) [Example 7, methyl (2R,3S,5R)-2-(((7,7-difluoro-6-(pyrimidin-2-yl)bicyclo[4.1.0]heptan-3-yl)oxy)methyl)-3-((N,N-dimethylsulfamoyl)amino)-5-methylpyrrolidine-1-carboxylate] |
| 34.4 nM | COC(=O)N1[C@H](C)C[C@H](NS(=O)(=O)Cc2ccccc2)[C@@H]1CO[C@H]1CC[C@@]2(c3ncc(F)cn3)C[C@H]2C1 [Example 34, methyl (2R,3S,5R)-2-((((1S,3S,6R)-6-(5-fluoropyrimidin-2-yl)bicyclo[4.1.0]heptan-3-yl)oxy)methyl)-5-methyl-3-((phenylmethyl)sulfonamido)pyrrolidine-1-carboxylate] |
| 1.7 nM | C[C@@H]1C[C@H](NS(C)(=O)=O)[C@H](CO[C@H]2CC[C@@]3(c4ncc(F)cn4)C[C@H]3C2)N1C(=O)OCCF [Example 62, 2-Fluoroethyl (2R,3S,5R)-2-((((1S,3S,6R)-6-(5-fluoropyrimidin-2-yl)bicyclo[4.1.0]heptan-3-yl)oxy)methyl)-5-methyl-3-(methylsulfonamido)pyrrolidine-1-carboxylate] |
| 0.86 nM | CC(C)OC(=O)N1CCC[C@H](NS(=O)(=O)C(F)F)[C@@H]1CO[C@H]1CC[C@@]2(c3ncc(F)cn3)C[C@H]2C1 [Example 121, isopropyl (2R,3S)-3-((difluoromethyl)sulfonamido)-2-((((1S,3S,6R)-6-(5-fluoropyrimidin-2-yl)bicyclo[4.1.0]heptan-3-yl)oxy)methyl)piperidine-1-carboxylate] |
| 0.9 nM | COC(=O)N1[C@H](C)C[C@H](NS(=O)(=O)C(C)C)[C@@H]1CO[C@H]1CC[C@@]2(c3ncc(F)cn3)C[C@H]2C1 [Example 38, methyl (2R,3S,5R)-2-((((1S,3S,6R)-6-(5-fluoropyrimidin-2-yl)bicyclo[4.1.0]heptan-3-yl)oxy)methyl)-5-methyl-3-((1-methylethyl)sulfonamido)pyrrolidine-1-carboxylate] |
| 8 nM | CCC(C)S(=O)(=O)N[C@H]1C[C@@H](C)N(C(=O)OC)[C@H]1CO[C@H]1CC[C@@]2(c3ncc(F)cn3)C[C@H]2C1 (stereo partly drawn) [Example 41, methyl (2R,3S,5R)-2-((((1S,3S,6R)-6-(5-fluoropyrimidin-2-yl)bicyclo[4.1.0]heptan-3-yl)oxy)methyl)-5-methyl-3-((1-methylpropyl)sulfonamido)pyrrolidine-1-carboxylate] |
| 1 nM | C[C@@H]1C[C@H](NS(C)(=O)=O)[C@H](CO[C@H]2CC[C@@]3(c4ncc(F)cn4)C[C@H]3C2)N1C(=O)OC[C@H]1[C@H](C)C1(F)F [Example 55, ((1R,3S)-2,2-difluoro-3-methylcyclopropyl)methyl (2R,3S,5R)-2-((((1S,3S,6R)-6-(5-fluoropyrimidin-2-yl)bicyclo[4.1.0]heptan-3-yl)oxy)methyl)-5-methyl-3-(methylsulfonamido)pyrrolidine-1-carboxylate] |
| 6.3 nM | COC(=O)N1[C@H](C)C[C@H](NS(C)(=O)=O)[C@@H]1COC1CCC2(c3ncc(F)cn3)CC2C1 (stereo partly drawn) [Example 135, methyl (2R,3S,5R)-2-(((6-(5-fluoropyrimidin-2-yl)bicyclo[4.1.0]heptan-3-yl)oxy)methyl)-5-methyl-3-(methylsulfonamido)pyrrolidine-1-carboxylate] |

| Structure (SMILES) | IC50 |
| --- | --- |
| C[C@@H]1C[C@H](NS(C)(=O)=O)[C@H](CO[C@H]2CC[C@@]3(c4ncc(F)cn4)C[C@H]3C2)N1C(=O)OCC1CC(F)C1 (stereo partly drawn) [Example 49, (3-fluorocyclobutyl)methyl (2R,3S,5R)-2-((((1S,3S,6R)-6-(5-fluoropyrimidin-2-yl)bicyclo[4.1.0]heptan-3-yl)oxy)methyl)-5-methyl-3-(methylsulfonamido)pyrrolidine-1-carboxylate] | 1.1 nM |

Source: patent publication US20230365533A1, “BICYCLOHEPTANE PYRROLIDINE OREXIN RECEPTOR AGONISTS” (MERCK SHARP & DOHME CORP., priority 2021, published 2023)
